Key:
Format in all cases: cell-based, human
[1] = system: wild-type and variant SNAP-GIPR; assay: cADDis cAMP imaging in AD293 cells, ensemble, expression-matched and per decile;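 on AD293 100 nM cADDis: Ensemble cells as % of IBMX/FSK response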;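 on AD293 100 pM cADDis: Ensemble cells as % of IBMX/FSK response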
Outline: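 AD293 cells reverse-transfected with wild-type or variant SNAP-GIPR plus cADDis Green Up sensor, variants run in parallel. After 24 h, surface receptor labelled with SNAP-Surface Alexa Fluor 647 (500 nM); single-cell cADDis fluorescence imaged at 37 °C in KRBH, 6 mM glucose, 0.1% BSA. Responses given ensemble, expression-matched by wild-type deciles, or per own decile.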

[2] = system: wild-type and variant SNAP-GIPR; assay: Constitutive and agonist-mediated internalization, reversible SNAP-tag labelling, AD293 cells; design: key to Internalisation, Vehicle / Internalisation, +GIP / Internalisation, GIP-only: % internalization: residual fluorescence after Mesna vs pre-Mesna; Surface expression: unit not given here
Outline: (§1)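 Percentage internalization is read as the fraction of specific SNAP fluorescence that survives Mesna stripping, compared with the image taken before Mesna. Wells are imaged in TNE buffer at pH 8.6 and again after 10 min.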

[3] = system: wild-type and variant SNAP-GIPR; assay: Single-concentration GIP cAMP response by HTRF in AD293 cells; settings: for HTRF cAMP: 100 nM GIP, AD293, 30 min, n=8;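 on AD293 100 nM HTRF: ratio to experiment-wide average response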;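 on AD293 100 pM HTRF: ratio to experiment-wide average response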
Description: (§2) All variants were tested in parallel on each occasion to control for transfection efficiency differences between experiments.

[4] = system: wild-type and variant SNAP-GIPR; assay: Surface SNAP-GIPR expression (SNAP-tag labelling) in INS-1 cells; settings: Fig 4G; Mean
Outline: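 Read-out: whole-cell fluorescence of surface-only SNAP label (Alexa Fluor 647, 500 nM, 10 min, RT), wide-field 20X, several FOVs per well. Flat-field corrected, phase-contrast masked, nontransfected-well signal subtracted; normalized to experiment mean or wild-type.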

[5] = system: wild-type and variant SNAP-GIPR; assay: Constitutive and agonist-mediated internalization, reversible SNAP-tag labelling, INS-1 cells; design: key to Internalisation, GIP-only / Internalisation, Vehicle / Internalisation, +GIP: % internalization: residual fluorescence after Mesna vs pre-Mesna; settings: Mean
Outline: as §1

[6] = system: wild-type and variant SNAP-GIPR; assay: Single-concentration GIP cAMP response by HTRF in INS-1 cells; settings: Fig S3E, mean
Description: as §2

CC[C@H](C)[C@H](NC(=O)[C@H](CO)NC(=O)[C@H](Cc1ccc(O)cc1)NC(=O)[C@H](CC(=O)O)NC(=O)[C@H](CO)NC(=O)[C@@H](NC(=O)[C@H](Cc1ccccc1)NC(=O)[C@@H](NC(=O)CNC(=O)[C@H](CCC(=O)O)NC(=O)[C@H](C)NC(=O)[C@@H](N)Cc1ccc(O)cc1)[C@@H](C)O)[C@@H](C)CC)C(=O)N[C@@H](C)C(=O)N[C@@H](CCSC)C(=O)N[C@@H](CC(=O)O)C(=O)N[C@@H](CCCCN)C(=O)N[C@H](C(=O)N[C@@H](Cc1c[nH]cn1)C(=O)N[C@@H](CCC(N)=O)C(=O)N[C@@H](CCC(N)=O)C(=O)N[C@@H](CC(=O)O)C(=O)N[C@@H](Cc1ccccc1)C(=O)N[C@H](C(=O)N[C@@H](CC(N)=O)C(=O)N[C@@H](Cc1c[nH]c2ccccc12)C(=O)N[C@@H](CC(C)C)C(=O)N[C@@H](CC(C)C)C(=O)N[C@@H](C)C(=O)N[C@@H](CCC(N)=O)C(=O)N[C@@H](CCCCN)C(=O)NCC(=O)N[C@@H](CCCCN)C(=O)N[C@@H](CCCCN)C(=O)N[C@@H](CC(N)=O)C(=O)N[C@@H](CC(=O)O)C(=O)N[C@@H](Cc1c[nH]c2ccccc12)C(=O)N[C@@H](CCCCN)C(=O)N[C@@H](Cc1c[nH]cn1)C(=O)N[C@@H](CC(N)=O)C(=O)N[C@H](C(=O)N[C@H](C(=O)N[C@@H](CCC(N)=O)C(=O)O)[C@@H](C)O)[C@@H](C)CC)C(C)C)[C@@H](C)CC [GIP, glucose-dependent insulinotropic polypeptide, reference compound]
cADDis cAMP response at low own expression ([1]; AD293, 100 pM GIP, E354Q (lesser extent A207V, E252D, A268V)): increased responses relative to the wild type
cADDis cAMP response, expression-matched ([1]; AD293, 100 pM GIP, R101H, S64A, R217L, L262H, L304R): at least partly restored to wild-type levels
cADDis cAMP response at highest own expression ([1]; AD293, 100 pM GIP, R136W, R131S, T116R, S64A): wild type–like responses
cADDis cAMP response, expression-matched ([1]; AD293, 100 pM GIP, all variants with reduced ensemble response): still showed LoF
cADDis cAMP response, expression-matched ([1]; AD293, 100 pM and 100 nM GIP, R183Q, R190Q, D66G, E288G): no rescue of function
GIP-induced increase in internalization ([2]; 100 nM GIP, R190Q, R101H, E288G, D66G, R183Q, either/both AD293 and INS-1): statistically significant reductions in internalization
internalization ([2]; 100 nM GIP, most variants, AD293 and INS-1): wild type–like internalization
HTRF cAMP ([3]; A207V, mean): 1.3964 vs. experimental average
HTRF cAMP ([3]; A268V, mean): 1.283 vs. experimental average
cAMP response ([3]; AD293, 100 pM GIP, E252D and A268V): GoF cAMP responses
cAMP response ([3]; AD293, 100 pM GIP, E354Q): increased response
cAMP response ([3]; AD293, 100 pM GIP, R136W and R131S): reduced cAMP response
cAMP response ([3]; AD293, 100 pM and 100 nM GIP, 10 variants with lowest surface expression): reduced cAMP responses
cAMP response at higher concentration ([3]; AD293, 100 nM GIP, S64A, R217L, L262H): at least a partially restored response
HTRF cAMP ([3]; D66G, mean): 0.328 vs. experimental average
HTRF cAMP ([3]; E252D, mean): 1.787 vs. experimental average
HTRF cAMP ([3]; E288G, mean): 0.3648 vs. experimental average
HTRF cAMP ([3]; E354Q, mean): 1.4229 vs. experimental average
HTRF cAMP ([3]; E463Q, mean): 1.311 vs. experimental average
HTRF cAMP ([3]; G438S, mean): 1.655 vs. experimental average
HTRF cAMP ([3]; I378M, mean): 1.479 vs. experimental average
HTRF cAMP ([3]; I403V, mean): 1.595 vs. experimental average
HTRF cAMP ([3]; L100F, mean): 1.598 vs. experimental average
HTRF cAMP ([3]; L262H, mean): 1.14 vs. experimental average
HTRF cAMP ([3]; L262V, mean): 1.331 vs. experimental average
HTRF cAMP ([3]; L304R, mean): 0.7364 vs. experimental average
HTRF cAMP ([3]; R101H, mean): 0.2474 vs. experimental average
HTRF cAMP ([3]; R131S, mean): 1.306 vs. experimental average
HTRF cAMP ([3]; R136W, mean): 1.324 vs. experimental average
HTRF cAMP ([3]; R183Q, mean): 0.2411 vs. experimental average
HTRF cAMP ([3]; R190Q, mean): 0.2205 vs. experimental average
HTRF cAMP ([3]; R196G, mean): 1.594 vs. experimental average
HTRF cAMP ([3]; R217L, mean): 1.142 vs. experimental average
HTRF cAMP ([3]; R300W, mean): 1.632 vs. experimental average
HTRF cAMP ([3]; R336P, mean): 1.143 vs. experimental average
HTRF cAMP ([3]; R341P, mean): 0.1915 vs. experimental average
HTRF cAMP ([3]; R404H, mean): 1.255 vs. experimental average
HTRF cAMP ([3]; S64A, mean): 1.061 vs. experimental average
HTRF cAMP ([3]; S415G, mean): 1.323 vs. experimental average
HTRF cAMP ([3]; S415I, mean): 1.113 vs. experimental average
HTRF cAMP ([3]; S447T, mean): 1.418 vs. experimental average
HTRF cAMP ([3]; T116R, mean): 1.485 vs. experimental average
HTRF cAMP ([3]; WT, mean): 1.495 vs. experimental average

B1: WT (protein, UniProt P48546 22-466, looked up)
Gastric inhibitory …: RAETGSKGQTAGELYQRWERYRRECQETLAAAEPPSGLACNGSFDMYVCWDYAAPNATARASCPWYLPWHHHVAAGFVLRQCGSDGQWGLWRDHTQCENPEKNEAFLDQRLILERLQVMYTVGYSLSLATLLLALLILSLFRRLHCTRNYIHINLFTSFMLRAAAILSRDRLLPRPGPYLGDQALALWNQALAACRTAQIVTQYCVGANYTWLLVEGVYLHSLLVLVGGSEEGHFRYYLLLGWGAPALFVIPWVIVRYLYENTQCWERNEVKAIWWIIRTPILMTILINFLIFIRILGILLSKLRTRQMRCRDYRLRLARSTLTLVPLLGVHEVVFAPVTEEQARGALRFAKLGFEIFLSSFQGFLVSVLYCFINKEVQSEIRRGWHHCRLRRSLGEEQRQLPERAFRALPSGSGPGEVPTSRGLSSGTLPGPGNEASRELESYC
Surface expression [4]: 1.4278
AD293 100 pM cADDis ([1]; Fig S3F, AD293, 100 pM, cADDis, mean): 34.2953
AD293 100 nM cADDis ([1]; Fig S3F, AD293, 100 nM, cADDis, mean): 38.14
+GIP internalisation (100 nM) ([5]; Fig 4G, GIP 100 nM): 0.7446
GIP-specific internalisation (100 nM) ([5]; Fig 4G, GIP 100 nM): 0.2047
Constitutive internalisation (100 nM) ([5]; Fig 4G): 0.5399
Internalisation, +GIP ([5]; Fig S4C, INS-1): 51.1244
Internalisation, GIP-only ([5]; Fig S4C, INS-1): 14.2697
Internalisation, Vehicle ([5]; Fig S4C, INS-1): 36.8547
INS-1 cAMP (100 nM) [6]: 1.606
+GIP internalisation (100 nM) ([2]; Fig 4E, GIP 100 nM, Mean): 0.9729
GIP-specific internalisation (100 nM) ([2]; Fig 4E, GIP 100 nM, Mean): 0.2717
Constitutive internalisation (100 nM) ([2]; Fig 4E, Mean): 0.7012
Surface expression ([2]; Fig 4E, Mean): 1.75
Internalisation, +GIP ([2]; Fig S4C, AD293, Mean): 55.4256
Internalisation, GIP-only ([2]; Fig S4C, AD293, Mean): 15.538
Internalisation, Vehicle ([2]; Fig S4C, AD293, Mean): 39.8877
AD293 100 pM HTRF ([3]; Fig S3F, AD293, 100 pM, HTRF, mean): 1.584
AD293 100 nM HTRF ([3]; Fig S3F, AD293, 100 nM, HTRF, mean): 1.495

Reference: publication PMC13544220, “Glycemic and bodyweight effects of GIPR coding variation reflect differences in surface expression and intrinsic functional impairment” (Science Advances, 2026)
